{"source": "PubChem BioAssay AID1259411", "about": "(Chemical Carcinogenesis Research Information System (CCRIS), 2018)", "tested_on": "rodent carcinogenicity bioassays, tumor incidence", "test": "CCRIS carcinogenicity studies", "summary_of_the_method": "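NCI-built, expert-reviewed records of carcinogenicity and related test outcomes (mutagenicity, tumor promotion/inhibition) compiled from published and report sources, historical span 1985-2011, not updated.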", "note": "Activity calls are given as the source filed them. No rule for the calls is given here."}
{"smiles": "CC(=O)Nc1nc(-c2ccc([N+](=O)[O-])o2)cs1", "values": [{"measurement": "carcinogen call", "setting": "Species: HAMSTER, Route: ORAL, Tumor Site: Type of Lesion: FORESTOMACH, URINARY BLADDER", "result": "active; positive"}, {"measurement": "carcinogen call", "setting": "Species: MOUSE, Route: ORAL, Tumor Site: Type of Lesion: FORESTOMACH, HEMATOPOIETIC SYSTEM (LEUKEMIA), LYMPHATIC SYSTEM: LYMPHATIC LEUKEMIA, Tumor Site: Type of Lesion: FORESTOMACH, HEMATOPOIETIC SYSTEM (LEUKEMIA), LYMPHATIC SYSTEM: LYMPHATIC LEUKEMIA", "result": "active; positive"}, {"measurement": "carcinogen call", "setting": "Species: RAT, Route: ORAL, Tumor Site: Type of Lesion: MAMMARY GLAND, LUNG, SALIVARY GLAND, Tumor Site: Type of Lesion: MAMMARY GLAND, LUNG, SALIVARY GLAND", "result": "active; positive"}]}
{"smiles": "CCSC(=O)N(CC(C)C)CC(C)C", "values": [{"measurement": "carcinogen call", "setting": "Species: Mouse, Strain/Sex: CD-1/Female (50/sex/group), Route: Oral, Dose: 0, 20, 80, 320 mg/kg/d in diet for 2 yrs, Dose: 0, 20, 80, 320 mg/kg/d in diet for 2 yrs", "result": "inactive; negative; probable purity of 97-98%"}, {"measurement": "carcinogen call", "setting": "Species: Mouse, Strain/Sex: CD-1/Male (50/sex/group), Route: Oral, Dose: 0, 20, 80, 320 mg/kg/d in diet for 2 yrs, Dose: 0, 20, 80, 320 mg/kg/d in diet for 2 yrs", "result": "inactive; negative; probable purity of 97-98%"}, {"measurement": "carcinogen call", "setting": "Species: Rat, Strain/Sex: Sprague-Dawley/Female (70/sex/group), Route: Oral, Dose: 0, 50, 100, 200, 400 mg/kg/d in diet for 12, 18, or 24 mo, Dose: 0, 50, 100, 200, 400 mg/kg/d in diet for 12, 18, or 24 mo", "result": "inactive; negative; probable purity of 97-98% (there were probably 10 animals in each inte"}, {"measurement": "carcinogen call", "setting": "Species: Rat, Strain/Sex: Sprague-Dawley/Male (70/sex/group), Route: Oral, Dose: 0, 50, 100, 200, 400 mg/kg/d in diet for 12, 18, or 24 mo, Dose: 0, 50, 100, 200, 400 mg/kg/d in diet for 12, 18, or 24 mo", "result": "inactive; negative; probable purity of 97-98% (there were probably 10 animals in each inte"}]}
{"smiles": "CCNC(=O)N(C=O)CCN(C)C", "values": [{"measurement": "carcinogen call", "setting": "Species: RAT, Strain/Sex: F344/FEMALE, Route: INTRAGASTRIC, Dose: 0, 25 MG/ML CORN OIL/ETHYL ACETATE (2:1) SOLUTION ADMINISTERED AS 0.2 ML 2/WK FOR 37 WK (STUDY DURATION: 102 WK), Tumor Site: Type of Lesion: NASAL CAVITY: ADENOMA", "result": "active; positive"}, {"measurement": "carcinogen call", "setting": "Species: RAT, Strain/Sex: F344/MALE, Route: INTRAGASTRIC, Dose: 0, 25 MG/ML CORN OIL/ETHYL ACETATE (2:1) SOLUTION ADMINISTERED AS 0.2 ML 2/WK FOR 37 WK (STUDY DURATION: 102 WK)", "result": "inactive; negative"}]}
{"smiles": "ClCCOCCCl", "values": [{"measurement": "carcinogen call", "setting": "Species: MOUSE, Strain/Sex: B6AKF1/MALE, Route: GAVAGE/ORAL, Dose: 100 MG/KG FROM DAY 7-28 OF LIFE THEN 300 MG/KG IN DIET, Tumor Site: Type of Lesion: LIVER: HEPATOMA", "result": "active; positive"}, {"measurement": "carcinogen call", "setting": "Species: MOUSE, Strain/Sex: B6C3F1/MALE,FEMALE, Route: GAVAGE/ORAL, Dose: 100 MG/KG FROM DAY 7-28 OF LIFE THEN 300 MG/KG IN DIET, Tumor Site: Type of Lesion: LIVER: HEPATOMA", "result": "active; positive"}, {"measurement": "carcinogen call", "setting": "Species: RAT, Strain/Sex: SPRAGUE-DAWLEY/MALE, Route: SUBCUTANEOUS, Dose: 0, 13.1, 4.36 UMOL IN DMSO 1/WK FOR 2 YR (STUDY DURATION: 2 YR), Dose: 0, 13.1, 4.36 UMOL IN DMSO 1/WK FOR 2 YR (STUDY DURATION: 2 YR)", "result": "inactive; negative"}, {"measurement": "carcinogen call", "setting": "Species: RAT, Strain/Sex: STRAIN-CD/MALE,FEMALE, Route: GAVAGE, Dose: 25, 50 MG/KG IN STEROID SUSPENDING VEHICLE 2/WK FOR 78 WK", "result": "inactive; negative"}]}
{"smiles": "ClC1=C(Cl)[C@]2(Cl)[C@@H]3[C@@H]4C[C@@H]([C@H]5O[C@@H]45)[C@@H]3[C@@]1(Cl)C2(Cl)Cl", "values": [{"measurement": "carcinogen call", "setting": "Species: MOUSE, Strain/Sex: B6C3F1/FEMALE, Route: ORAL, Dose: 0, 2.5, 5 PPM IN DIET FOR 80 WK (STUDY DURATION: 90-93 WK), Dose: 0, 2.5, 5 PPM IN DIET FOR 80 WK (STUDY DURATION: 90-93 WK)", "result": "inactive; negative"}, {"measurement": "carcinogen call", "setting": "Species: MOUSE, Strain/Sex: B6C3F1/MALE, Route: ORAL, Dose: 0, 2.5, 5 PPM IN DIET FOR 80 WK (STUDY DURATION: 90-93 WK), Dose: 0, 2.5, 5 PPM IN DIET FOR 80 WK (STUDY DURATION: 90-93 WK), Tumor Site: Type of Lesion: LIVER: HEPATOCELLULAR CARCINOMA", "result": "equivocal"}, {"measurement": "carcinogen call", "setting": "Species: MOUSE, Strain/Sex: B6C3F1/MALE, Route: ORAL, Dose: 0, 2.5, 5 PPM IN DIET FOR 80 WK (STUDY DURATION: 91-93 WK), Dose: 0, 2.5, 5 PPM IN DIET FOR 80 WK (STUDY DURATION: 91-93 WK), Tumor Site: Type of Lesion: LIVER: HEPATOCELLULAR CARCINOMA", "result": "active; positive"}, {"measurement": "carcinogen call", "setting": "Species: MOUSE, Strain/Sex: B6C3F1/MALE, Route: ORAL, Dose: 0, 10 PPM IN DIET FOR 85 WK (STUDY DURATION: 132 WK), Tumor Site: Type of Lesion: LIVER: TUMORS", "result": "active; positive"}, {"measurement": "carcinogen call", "setting": "Species: MOUSE, Strain/Sex: BALB/MALE, Route: ORAL, Dose: 0, 10 PPM (WT/WT) IN CORN OIL ADDED TO DIET FOR 75 WK (STUDY DURATION: 75 WK), Tumor Site: Type of Lesion: LIVER: HEPATOCELLULAR ADENOMA, HEPATOCELLULAR CARCINOMA", "result": "active; positive"}, {"measurement": "carcinogen call", "setting": "Species: MOUSE, Strain/Sex: C3H/MALE, Route: ORAL, Dose: 0, 10 PPM IN DIET FOR 85 WK (STUDY DURATION: 132 WK), Tumor Site: Type of Lesion: LIVER: TUMORS", "result": "active; positive"}, {"measurement": "carcinogen call", "setting": "Species: MOUSE, Strain/Sex: C57BL/MALE, Route: ORAL, Dose: 0, 10 PPM IN DIET FOR 85 WK (STUDY DURATION: 132 WK), Tumor Site: Type of Lesion: LIVER: TUMORS", "result": "active; positive"}, {"measurement": "carcinogen call", "setting": "Species: MOUSE, Strain/Sex: CF-1/MALE,FEMALE, Route: ORAL, Dose: 0, 0.1, 1, 2.5, 5, 10, 20 PPM IN DIET CONTINUOUSLY, Dose: 0, 0.1, 1, 2.5, 5, 10, 20 PPM IN DIET CONTINUOUSLY, Tumor Site: Type of Lesion: LIVER", "result": "active; positive"}, {"measurement": "carcinogen call", "setting": "Species: MOUSE, Strain/Sex: CF-1/MALE,FEMALE, Route: ORAL, Dose: 0, 0.1, 1.0, 10 PPM IN DIET FOR 132 WK, Dose: 0, 0.1, 1.0, 10 PPM IN DIET FOR 132 WK, Tumor Site: Type of Lesion: LIVER", "result": "active; positive"}, {"measurement": "carcinogen call", "setting": "Species: MOUSE, Strain/Sex: CF-1/MALE,FEMALE, Route: ORAL, Dose: 0, 1.25, 2.5, 5, 10, 20 PPM IN DIET FOR 128 WK, Dose: 0, 1.25, 2.5, 5, 10, 20 PPM IN DIET FOR 128 WK, Tumor Site: Type of Lesion: LIVER", "result": "active; positive"}, {"measurement": "carcinogen call", "setting": "Species: MOUSE, Strain/Sex: CF-1/MALE,FEMALE, Route: ORAL, Dose: 0, 10 PPM IN DIET FOR 2 YR OR MORE, Tumor Site: Type of Lesion: LIVER", "result": "active; positive"}, {"measurement": "carcinogen call", "setting": "Species: MOUSE, Strain/Sex: CF-1/MALE,FEMALE, Route: ORAL, Dose: 0, 10 PPM IN DIET FOR UP TO 110 WK, Tumor Site: Type of Lesion: LIVER: HEPATOCELLULAR TUMOR", "result": "active; positive"}, {"measurement": "carcinogen call", "setting": "Species: MOUSE, Strain/Sex: CF-1/MALE,FEMALE, Route: ORAL, Dose: 10 PPM IN DIET FOR 0, 2, 4, 8, 16, 32 OR 64 WK, Tumor Site: Type of Lesion: LIVER: HEPATOCELLULAR TUMOR", "result": "active; positive"}, {"measurement": "carcinogen call", "setting": "Species: RAT, Strain/Sex: OSBORNE-MENDEL/FEMALE, Route: ORAL, Dose: 0, 29, 65 PPM TWA, IN DIET FOR 59-80 WK (STUDY DURATION: 110-111 WK), Dose: 0, 29, 65 PPM TWA, IN DIET FOR 59-80 WK (STUDY DURATION: 110-111 WK)", "result": "inactive; negative"}, {"measurement": "carcinogen call", "setting": "Species: RAT, Strain/Sex: OSBORNE-MENDEL/MALE, Route: ORAL, Dose: 0, 29, 65 PPM TWA, IN DIET FOR 59-80 WK (STUDY DURATION: 110-111 WK), Dose: 0, 29, 65 PPM TWA, IN DIET FOR 59-80 WK (STUDY DURATION: 110-111 WK)", "result": "inactive; negative"}]}
{"smiles": "C[C@]12CC[C@@H]3c4ccc(O)cc4CC[C@H]3[C@@H]1CC[C@H]2O", "values": [{"measurement": "carcinogen call", "setting": "Species: HAMSTER, Strain/Sex: SYRIAN/MALE, Route: SUBCUTANEOUS IMPLANT, Dose: 0, 20 MG IN PELLETS IMPLANTED EVERY 2.5 MO FOR 9 MO (STUDY DURATION: 9 MO)", "result": "inactive; negative"}]}
{"smiles": "CN(C)CCOc1ccc(/C(=C(/CCCl)c2ccccc2)c2ccccc2)cc1", "values": [{"measurement": "carcinogen call", "setting": "Species: RAT, Strain/Sex: SPRAGUE-DAWLEY/FEMALE, Route: GAVAGE, Dose: 0, 12, 24 MG/KG IN 0.5% CARBOXYMETHYLCELLULOSE 1/D 7 D/WK FOR UP TO 12 MO (STUDY DURATION: 15 MO), Dose: 0, 12, 24 MG/KG IN 0.5% CARBOXYMETHYLCELLULOSE 1/D 7 D/WK FOR UP TO 12 MO (STUDY DURATION: 15 MO)", "result": "inactive; negative"}, {"measurement": "carcinogen call", "setting": "Species: RAT, Strain/Sex: SPRAGUE-DAWLEY/FEMALE, Route: ORAL, Dose: 0, 0.12, 1.2, 5, 12 MG/KG/D IN DIET FOR DURATION OF STUDY (STUDY DURATION: 104 WK), Dose: 0, 0.12, 1.2, 5, 12 MG/KG/D IN DIET FOR DURATION OF STUDY (STUDY DURATION: 104 WK)", "result": "inactive; negative"}, {"measurement": "carcinogen call", "setting": "Species: RAT, Strain/Sex: SPRAGUE-DAWLEY/MALE, Route: ORAL, Dose: 0, 0.12, 1.2, 5, 12 MG/KG/D IN DIET FOR DURATION OF STUDY (STUDY DURATION: 104 WK), Dose: 0, 0.12, 1.2, 5, 12 MG/KG/D IN DIET FOR DURATION OF STUDY (STUDY DURATION: 104 WK)", "result": "inactive; negative"}]}
